Consider one molecule from US7109294B2, “Bacterial glycosyltransferase polypeptides involved in antibiotic resistance” (priority 2001, dated 2006).

The structures appear in SMILES notation. “Also recorded” adds a separate entry of the source.

What all share (format): cell-based, Pseudomonas aeruginosa
Assay [1] deals with 45E7 mutant colony biofilm.
Assay [2] concerns 30B1 mutant colony biofilm.
In assay [3] the test system is 45E7 mutant flow cell biofilm.

In the case of `NC[C@H]1O[C@H](O[C@H]2[C@H](O)[C@@H](O[C@H]3O[C@H](CO)[C@@H](O)[C@H](N)[C@H]3O)[C@H](N)C[C@@H]2N)[C@H](N)C[C@@H]1O` [Tb, tobramycin], in assay [1], the “resistance of colony biofilm cells” value is reported as “as resistant to the effects of Tb as the wild type” and the “viable cells in colony biofilm” value is “below detection; also recorded: no viable cells were detected”. In addition, in assay [2], the “drop in viable count in colony biofilm” value was ~10^9 and the “viable cells in colony biofilm” value is on record as “below detection; also recorded: no viable cells detected”. In addition, the “live versus dead cells in Tb-treated biofilm (BacLight)” value in assay [3] is on record as “more dead cells than live ones”.
